Here are results for nine compounds from the supplement of paper PMC8671470.

Common to all, as to conditions: 72 h
For one assay, the system named is HL-60. Kind of assay: area under dose-response curve (viability, 1 nM-10 uM) (fraction (0-1)); higher = more sensitive. The essentials:
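In 384-well plates, the full library was rescreened in duplicate on HL-60 cells in RPMI 1640 with 10% FBS, at 1–10,000 nM in five tenfold concentrations, for 72 h at 37 °C, 5% CO2. Each run also held DMSO or 100 nM of one of three metabolic inhibitors. Viability was measured by CellTiter-Glo and normalised to DMSO wells and to wells with proteasome inhibitor, present at 10 μM. Any area under the curve comes from four-parameter log-logistic fitting with drc and PharmacoGx.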

Assay [1] deals with myeloid leukemia patient primary cells Pat.11. The experiment in a line: cell viability (% survival relative to DMSO control); higher = less cytotoxic. The method in brief: (§1)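 Thawed, Ficoll-purified mononuclear cells from AML or CML patients in RPMI 1640 with 10% FBS were seeded at 10,000 cells/well on 384-well plates pre-printed with 70 compounds at five tenfold concentrations, 1–10,000 nM, in duplicate, for 72 h. Viability was read by CellTiter-Glo and normalised to DMSO and 10 μM proteasome-inhibitor wells. Where given, area under the curve came from four-parameter log-logistic fits (drc, PharmacoGx R packages).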

The subject of assay [2] is myeloid leukemia patient primary cells Pat.7. The assay is described as above. The method in brief: as §1
Assay [3] deals with myeloid leukemia patient primary cells Pat.5. Described as above. The method in brief: as §1
Setting [4] is: co-treatment: GSK2194069 100 nM.
Setting [5] is: co-treatment: pictilisib 100 nM.

SMILES strings stand for the structures.

`CC(Cc1ccc(O)c(O)c1)C(C)Cc1ccc(O)c(O)c1` (stereo unspecified) [Masoprocol]: the “area under dose-response curve” value in the assay with HL-60 (co-treatment: AZD3965 100 nM) stood at 0.12; in the assay on HL-60 (co-treatment: DMSO vehicle), 0.104; with HL-60 (setting [4]), 0.0826; in the assay on HL-60 (setting [5]) it was 0.142. In addition, the cell viability is 94.1% in assay [1] (1 nM); greater than 100% in assay [1] (10 nM); 98.8% in assay [1] (100 nM); 89.9% in assay [1] (1000 nM); 80% in assay [1] (10000 nM); greater than 100% in assay [2] (1 nM). Moreover, the cell viability was found to be 85.3% in assay [2] (10 nM); 89% in assay [2] (100 nM); 31.9% in assay [2] (1000 nM); 2.01% in assay [2] (10000 nM); 57.1% in assay [3] (1 nM); 7.88% in assay [3] (10 nM). In addition, the cell viability in assay [3] (100 nM) was 76.6%; in assay [3] (1000 nM) it was 21.6%; in assay [3] (10000 nM), greater than 100%.
As for `O=C1Nc2ccccc2/C1=C\NCCc1ccc(O)c(O)c1` [AC1NZZMF], the “area under dose-response curve” value in the assay on HL-60 (co-treatment: AZD3965 100 nM), in the assay on HL-60 (co-treatment: DMSO vehicle), in the assay with HL-60 (setting [4]) and in the assay on HL-60 (setting [5]) was less than 0.0301 each time.
As for `Clc1ccc(COC(Cn2ccnc2)c2ccc(Cl)cc2Cl)cc1` (stereo unspecified) [Econazole], the cell viability is 89.9% in assay [1] (1 nM); 92.9% in assay [1] (10 nM); 99.9% in assay [1] (100 nM); 88.6% in assay [1] (1000 nM); 73.3% in assay [1] (10000 nM); 72.2% in assay [2] (1 nM). Also, the cell viability in assay [2] (10 nM) was greater than 100%; in assay [2] (100 nM), 93%; in assay [2] (1000 nM), 63.4%; in assay [2] (10000 nM), less than 0%; in assay [3] (1 nM), 42.3%; in assay [3] (10 nM), 90.6%. For the same compound, the cell viability in assay [3] (100 nM) stood at 35.2%; in assay [3] (1000 nM), 6.55%; in assay [3] (10000 nM), 1.33%.
Turning to `O=C(O)c1nn(Cc2ccc(Cl)cc2Cl)c2ccccc12` [Lonidamine], the “area under dose-response curve” value in the assay on HL-60 (co-treatment: AZD3965 100 nM), in the assay on HL-60 (co-treatment: DMSO vehicle), with HL-60 (setting [4]) and with HL-60 (setting [5]) was less than 0.0301 each time.
As for `CCOC(=O)[C@@]1(CCCCCCOc2ccc(Cl)cc2)CO1` [Etomoxir], the “area under dose-response curve” value in the assay on HL-60 (co-treatment: AZD3965 100 nM), in the assay on HL-60 (co-treatment: DMSO vehicle), in the assay on HL-60 (setting [4]) and in the assay with HL-60 (setting [5]) was less than 0.0301 throughout.
With `N[C@](CCCCB(O)O)(CCN1CCCCC1)C(=O)O` [Arginase inhibitor 1], the “area under dose-response curve” value in the assay with HL-60 (co-treatment: AZD3965 100 nM) worked out at 0.0306; in the assay with HL-60 (co-treatment: DMSO vehicle), 0.0367; in the assay with HL-60 (setting [4]), 0.0592.
Take `O=C(COc1ccc(C(=O)c2ccccc2)cc1)NC1CCN(Cc2ccccc2)CC1` [AdipoRon]: the “area under dose-response curve” value in the assay on HL-60 (co-treatment: AZD3965 100 nM), in the assay with HL-60 (co-treatment: DMSO vehicle), with HL-60 (setting [4]) and in the assay with HL-60 (setting [5]) was less than 0.0301 in each case.
As for `Cl.OC[C@H]1NC[C@@H](O)[C@@H](O)[C@@H]1O` [1-Deoxymannojirimycin hydrochloride], the “area under dose-response curve” value in the assay on HL-60 (co-treatment: AZD3965 100 nM), in the assay on HL-60 (co-treatment: DMSO vehicle), in the assay with HL-60 (setting [4]) and in the assay on HL-60 (setting [5]) was less than 0.0301 in each case.
On to `C[C@H]1O[C@@H](O[C@H]2[C@@H](O)C[C@H](O[C@H]3[C@@H](O)C[C@H](O[C@H]4CC[C@@]5(C)[C@H](CC[C@@H]6[C@@H]5C[C@@H](O)[C@]5(C)[C@@H](C7=CC(=O)OC7)CC[C@]65O)C4)O[C@@H]3C)O[C@@H]2C)C[C@H](O)[C@@H]1O` [Digoxin], for which the “area under dose-response curve” value with HL-60 (co-treatment: AZD3965 100 nM) worked out at 0.459; with HL-60 (co-treatment: DMSO vehicle), 0.479; in the assay on HL-60 (setting [4]), 0.423; with HL-60 (setting [5]), 0.486. For the same compound, the cell viability in assay [1] (1 nM) is greater than 100%; in assay [1] (10 nM), 97.6%; in assay [1] (100 nM), 48.8%; in assay [1] (1000 nM), 12.4%; in assay [1] (10000 nM), 7.54%; in assay [2] (1 nM), 76.9%. Further, the cell viability was 86.8% in assay [2] (10 nM); 69% in assay [2] (100 nM); 89% in assay [2] (1000 nM); greater than 100% in assay [2] (10000 nM); 82.9% in assay [3] (1 nM); 77.9% in assay [3] (10 nM). For the same compound, the cell viability in assay [3] (100 nM) was 9.05%; in assay [3] (1000 nM), 2.24%; in assay [3] (10000 nM) it was less than 0%.

Usually cell viability stands for the share of living cells, or the viability signal relative to a control.
